Data on one compound can be found in ChEMBL document CHEMBL5032491, “New Dibenzoquinoxalines Inhibit Triple-Negative Breast Cancer Growth by Dual Targeting of Topoisomerase 1 and the c-MYC G-Quadruplex” (J Med Chem, 2021).

The source made the active and inactive calls. No cut-off for these calls is given here.

Test [1] relates to MDA-MB-231. In words: Induction of cell cycle arrest in human MDA-MB-231 cells assessed as accumulation at S phase at 0.5 uM incubated for 24 hrs by flow cytometry (reference value: 19.2%). Type of test: functional. On the technique in general: A flow cytometer gives signals particle by particle.
For test [2], the system named is MDA-MB-231. Put plainly: Induction of cell cycle arrest in human MDA-MB-231 cells assessed as accumulation at G2/M phase at 2 uM incubated for 24 hrs by flow cytometry (reference value: 20.4%). Type of test: functional.
For test [3], the system named is MDA-MB-231. In words: Antiproliferative activity against human MDA-MB-231 cells assessed as inhibition in cell growth at 2.5 uM incubated for 24 hrs by CCK8 assay. The class given is functional, cell-based.
For test [4], the system named is MDA-MB-231. In words: Induction of cell cycle arrest in human MDA-MB-231 cells assessed as accumulation at S phase at 1 uM incubated for 24 hrs by flow cytometry (reference value: 19.2%). The class given is functional.
The subject of the next test is CA46. In words: Downregulation of EXON 2 transcription in human CA46 cells incubated for 24 hrs by RT-PCR analysis. The class given is functional, cell-based.
For test [5], the system named is MDA-MB-231. Put plainly: Inhibition of c-Myc protein expression in human MDA-MB-231 cells at 0.5 to 2 uM incubated for 24 hrs by Western blot analysis. The class given is functional, cell-based. The note with it: dose 0.5-2 µM. In general terms: A western blot detects proteins with antibodies after separation by electrophoresis.
Test [6] has as its system MDA-MB-231. Put plainly: Inhibition of HRAS gene transcription expression in human MDA-MB-231 cells at 0.5 to 2 uM incubated for 24 hrs by RT-PCR analysis. The note with it: dose 0.5-2 µM. Type of test: functional, cell-based.
Test [7] deals with MDA-MB-231. Put plainly: Antitumor activity against human MDA-MB-231 cells xenografted in BALB/c mouse assessed as tumor growth inhibition measured at 5 mg/kg, IP administered every other day for 20 days. The note with it: MDA-MB-231, ip, 480 h, time 20 day, read-out: TGI. The class given is functional. On the technique in general: A xenograft is tissue or cells of one species grown in another, often human tumour cells in immunodeficient mice.

Test [8] concerns MDA-MB-231. In words: Induction of cell cycle arrest in human MDA-MB-231 cells assessed as accumulation at S phase at 2 uM incubated for 24 hrs by flow cytometry (reference value: 19.2%). Type of test: functional.
The subject of test [9] is MDA-MB-231. In words: Induction of cell cycle arrest in human MDA-MB-231 cells assessed as accumulation at G0/G1 phase at 2 uM incubated for 24 hrs by flow cytometry (reference value: 56.6%). The class given is functional.
The target of test [10] is T1, DNA topoisomerase 1 (Homo sapiens) (UniProt P11387).
T1 sequence (whole entry): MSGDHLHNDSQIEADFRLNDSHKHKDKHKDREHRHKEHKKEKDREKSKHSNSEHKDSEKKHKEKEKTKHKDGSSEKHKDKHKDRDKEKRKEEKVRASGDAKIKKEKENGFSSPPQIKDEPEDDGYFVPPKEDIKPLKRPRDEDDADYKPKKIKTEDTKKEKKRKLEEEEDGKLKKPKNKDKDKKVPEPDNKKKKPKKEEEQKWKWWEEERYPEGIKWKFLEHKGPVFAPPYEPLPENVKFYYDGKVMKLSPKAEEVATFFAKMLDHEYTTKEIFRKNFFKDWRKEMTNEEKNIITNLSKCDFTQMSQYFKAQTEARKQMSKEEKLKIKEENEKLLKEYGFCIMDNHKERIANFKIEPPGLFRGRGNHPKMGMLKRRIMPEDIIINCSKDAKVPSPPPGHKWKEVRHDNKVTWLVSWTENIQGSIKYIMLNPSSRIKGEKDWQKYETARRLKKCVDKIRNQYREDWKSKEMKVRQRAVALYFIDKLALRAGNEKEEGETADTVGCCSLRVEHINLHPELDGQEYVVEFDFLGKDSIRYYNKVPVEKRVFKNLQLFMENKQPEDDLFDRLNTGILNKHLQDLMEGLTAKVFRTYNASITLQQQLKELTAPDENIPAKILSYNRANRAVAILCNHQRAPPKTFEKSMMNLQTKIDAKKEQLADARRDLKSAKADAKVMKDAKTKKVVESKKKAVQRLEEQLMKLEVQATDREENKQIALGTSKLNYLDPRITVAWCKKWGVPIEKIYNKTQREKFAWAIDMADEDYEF
Put plainly: Inhibition of human topoisomerase 1 mediated relaxation of supercoiled pHOT1 DNA at 5 to 20 uM incubated for 30 mins by agarose gel electrophoresis. The note with it: dose 5-20 µM.

In the case of `COc1ccc2nc3c4ccc(N5CCN(C)CC5)cc4c4cc(N5CCN(C)CC5)ccc4c3nc2c1`, the Activity is 20.3% in the test with MDA-MB-231 [1]; 21.2% in the test on MDA-MB-231 [2]; 20.4% with MDA-MB-231 [4]; 16.6% in the test with MDA-MB-231 [8]; 38.9% in the test with MDA-MB-231 [9]. The result in the test on MDA-MB-231 [3] was Active. In the test on CA46, the outcome was inactive. For the same compound, the inhibition entry with MDA-MB-231 [5] and in the test with MDA-MB-231 [6] was “inactive” in each case. Moreover, the inhibition in vivo at 5 mg/kg in the test with MDA-MB-231 [7] was 66%. Also, the inhibition entry in test [10] is “Active”.
